In the NIST ThermoML archive (doi:10.1016/j.jct.2007.05.011):

Test: xn = mol fraction of the nth substance listed
Conditions: 101 kPa, Liquid; for mass density: Vibrating tube method

NCCO.O=CO [2-hydroxyethylammonium formate] + CCO
Conditions	mass density [kg/m3]	speed of sound [m/s]
288.15 K, x2 = 0	1183.57	1733.9
288.15 K, x2 = 0.058	1172.99	1741.5
288.15 K, x2 = 0.098	1161.05	1723
288.15 K, x2 = 0.193	1135.72	1681.5
288.15 K, x2 = 0.296	1110.04	1639
288.15 K, x2 = 0.399	1079.51	1587.5
288.15 K, x2 = 0.5	1044.58	1529.7
288.15 K, x2 = 0.598	1006.57	1468.7
288.15 K, x2 = 0.701	963.374	1402.4
288.15 K, x2 = 0.799	914.502	1333.5
288.15 K, x2 = 0.9	859.222	1261.8
288.15 K, x2 = 0.95	828.585	1223.4
290.65 K, x2 = 0	1181.81	1727.4
290.65 K, x2 = 0.058	1171.33	1736.2
290.65 K, x2 = 0.098	1159.38	1717.6
290.65 K, x2 = 0.193	1134.02	1675.9
290.65 K, x2 = 0.296	1108.32	1633.2
290.65 K, x2 = 0.399	1077.76	1581.4
290.65 K, x2 = 0.5	1042.78	1523.3
290.65 K, x2 = 0.598	1004.72	1461.9
290.65 K, x2 = 0.701	961.474	1395.3
290.65 K, x2 = 0.799	912.536	1326
290.65 K, x2 = 0.9	857.183	1253.7
290.65 K, x2 = 0.95	826.503	1215
293.15 K, x2 = 0	1180.04	1721.3
293.15 K, x2 = 0.058	1169.68	1730.9
293.15 K, x2 = 0.098	1157.72	1712.2
293.15 K, x2 = 0.193	1132.33	1670.3
293.15 K, x2 = 0.296	1106.6	1627.4
293.15 K, x2 = 0.399	1076	1575.3
293.15 K, x2 = 0.5	1040.98	1517
293.15 K, x2 = 0.598	1002.88	1455.1
293.15 K, x2 = 0.701	959.571	1388.2
293.15 K, x2 = 0.799	910.569	1318.5
293.15 K, x2 = 0.9	855.141	1245.7
293.15 K, x2 = 0.95	824.416	1206.8
295.65 K, x2 = 0	1178.27	1715.1
295.65 K, x2 = 0.058	1168.03	1725.6
295.65 K, x2 = 0.098	1156.05	1706.8
295.65 K, x2 = 0.193	1130.64	1664.8
295.65 K, x2 = 0.296	1104.87	1621.7
295.65 K, x2 = 0.399	1074.24	1569.2
295.65 K, x2 = 0.5	1039.18	1510.6
295.65 K, x2 = 0.598	1001.03	1448.4
295.65 K, x2 = 0.701	957.67	1381.1
295.65 K, x2 = 0.799	908.602	1311
295.65 K, x2 = 0.9	853.093	1237.8
295.65 K, x2 = 0.95	822.326	1198.5
298.15 K, x2 = 0	1176.49	1709
298.15 K, x2 = 0.058	1166.37	1720.4
298.15 K, x2 = 0.098	1154.38	1701.5
298.15 K, x2 = 0.193	1128.94	1659.3
298.15 K, x2 = 0.296	1103.15	1615.9
298.15 K, x2 = 0.399	1072.49	1563.2
298.15 K, x2 = 0.5	1037.38	1504.3
298.15 K, x2 = 0.598	999.182	1441.7
298.15 K, x2 = 0.701	955.767	1374.1
298.15 K, x2 = 0.799	906.63	1303.6
298.15 K, x2 = 0.9	851.045	1229.8
298.15 K, x2 = 0.95	820.231	1190.2
300.65 K, x2 = 0	1174.71	1702.9
300.65 K, x2 = 0.058	1164.71	1715.2
300.65 K, x2 = 0.098	1152.72	1696.1
300.65 K, x2 = 0.193	1127.25	1653.7
300.65 K, x2 = 0.296	1101.44	1610.2
300.65 K, x2 = 0.399	1070.73	1557.2
300.65 K, x2 = 0.5	1035.58	1498
300.65 K, x2 = 0.598	997.335	1435.1
300.65 K, x2 = 0.701	953.861	1367
300.65 K, x2 = 0.799	904.657	1296.1
300.65 K, x2 = 0.9	848.99	1221.9
300.65 K, x2 = 0.95	818.13	1182
303.15 K, x2 = 0	1172.94	1696.8
303.15 K, x2 = 0.058	1163.06	1709.9
303.15 K, x2 = 0.098	1151.05	1690.8
303.15 K, x2 = 0.193	1125.56	1648.2
303.15 K, x2 = 0.296	1099.72	1604.4
303.15 K, x2 = 0.399	1068.98	1551.2
303.15 K, x2 = 0.5	1033.79	1491.7
303.15 K, x2 = 0.598	995.485	1428.4
303.15 K, x2 = 0.701	951.952	1360
303.15 K, x2 = 0.799	902.677	1288.7
303.15 K, x2 = 0.9	846.93	1214
303.15 K, x2 = 0.95	816.023	1173.8
305.65 K, x2 = 0	1171.16	–
305.65 K, x2 = 0.058	1161.41	–
305.65 K, x2 = 0.098	1149.39	–
305.65 K, x2 = 0.193	1123.87	–
305.65 K, x2 = 0.296	1098	–
305.65 K, x2 = 0.399	1067.22	–
305.65 K, x2 = 0.5	1031.98	–
305.65 K, x2 = 0.598	993.634	–
305.65 K, x2 = 0.701	950.042	–
305.65 K, x2 = 0.799	900.694	–
305.65 K, x2 = 0.9	844.863	–
305.65 K, x2 = 0.95	813.907	–
